The subject of data set [1] is antibodies raised from SUA-BTG. As to the kind of experiment: Biochip-based competitive immunoassay (salicyluric acid dose-response curve and cross-reactivity profile). The data set is classed as binding, sheep. To be noted: Concentration 350 μg/ml. The procedure: In order to generate polyclonal antisera, the immunogen (prepared in Example 2) was mixed with primary complete Freund's Adjuvant (Sigma) and injected into a host sheep to provide target-specific polyclonal antisera. On a monthly basis the immunogen (with incomplete Freund's Adjuvant) was injected into the sheep. The host animal was bled to yield a suitable volume of specific antiserum. IgG was then extracted from the antisera via Caprylic acid/ammonium sulphate precipitation of immunoglobulin.
Nine calibrator solutions of salicyluric acid (0-5.00 μg/ml) were prepared in calibrator buffer for standard curves. Cross-reactants (aspirin, 4-aminosalcylic acid, benzoic acid, diflusinal, gentisic acid, gentisuric acid, ibuprofen, methyl salicylate, salicylic acid and salsalate) were diluted in calibrator buffer (0-350 μg/ml). Assay diluent (155 μl), sample/antigen (25 μl), and diluted conjugate (Hapten 1-HRP 120 μl) were added to biochips wells. Biochips were incubated for 30 min at 30° C. in a thermoshaker at 370 rpm, and then washed with TBST buffer (2 quick washes followed by 4 washes with 2 min intervals). Biochips were developed with 250 μl luminol plus: peroxide (1:1) for 2 min in the dark, and were then imaged on the Randox Investigator (2×60 sec images).

For data set [2] the following is noted: cited from earlier work.
For data set [3] the following is noted: cited from earlier work; for share of excreted product: excretion after aspirin ingestion; for kinetics of formation: hepatic metabolism of salicylic acid.
[4] abbreviates: after ingestion of a therapeutic amount of aspirin.

With `Nc1ccc(C(=O)O)c(O)c1` [4-aminosalicylic acid], in data set [1], the “% Cross-reactivity” value was <<1.00%.

As to `CC(=O)Oc1ccccc1C(=O)O` [Aspirin, 2-acetoxybenzoic acid], the “moderately toxic concentration (MTC), aspirin equivalent” value in data set [2] (Chyka et al (2007)) is on record as 6.5 g. Besides, the “toxic concentration, aspirin ingestion” value in data set [2] (general literature) is above 300 mg/kg. Besides, in data set [2] (serum), the “concentrations considered to be toxic” value is on record as “exceeding 300 mg/l” and the “therapeutic concentration range in serum” value is 150 to 300 mg/L. Also, the “% Cross-reactivity” value in data set [1] is on record as <<1.00%. Moreover, the “time until only trace levels remain” value in data set [3] (setting [4]) was at most 2 h.

In the case of `O=C(O)c1ccccc1` [Benzoic acid], the “% Cross-reactivity” value in data set [1] was <<1.00%.

Regarding `O=C(O)c1cc(-c2ccc(F)cc2F)ccc1O` [Diflusinal], the “% Cross-reactivity” value in data set [1] is recorded as <<1.00%.

For the molecule `O=C(O)c1cc(O)ccc1O` [Gentisic acid], the “% Cross-reactivity” value in data set [1] is <<1.00%. In addition, in data set [3], the “share of excreted product” value is reported as “approximately 1%” and the kinetics of formation result is “first-order kinetics”.

`O=C(O)CNC(=O)c1cc(O)ccc1O` [Gentisuric acid]: the “% Cross-reactivity” value in data set [1] was <<1.00%.

For `O=C(O)CNC(=O)c1ccccc1` [Hippuric acid], the “% Cross-reactivity” value in data set [1] is <<1.00%.

With `CC(C)Cc1ccc(C(C)C(=O)O)cc1` (stereo not drawn) [Ibuprofen], the “% Cross-reactivity” value in data set [1] was <<1.00%.

As to `COC(=O)c1ccccc1O` [Methyl salicylate], the “% Cross-reactivity” value in data set [1] is <<1.00%.

Take `O=C(O)c1ccccc1O` [Salicylic acid, salicylic acid]: in data set [2] (blood of a healthy adult), the “therapeutic level in blood” value is 150 to 300 mg/L. In data set [1], the “% Cross-reactivity” value is given as <<1.00%. Also, the “time of peak levels” value in data set [3] (setting [4]) is 1 to 2 h. Besides, the “share of excreted product” value in data set [3] is “approximately 10%”. For the same molecule, the half-life result in data set [3] (in serum) was “approximately 6 hours”.

In the case of `O=C(O)CNC(=O)c1ccccc1O` [Salicyluric acid, salicyluric acid], in data set [3], the “share of excreted product” value is listed as “approximately 75%” and the kinetics of formation entry is “Michaelis-Menten or zero-order kinetics”.

Consider `O=C(O[C@@H]1O[C@H](C(=O)O)[C@@H](O)[C@H](O)[C@H]1O)c1ccccc1O` [salicylacyl glucuronide], for which, in data set [3], the “share of excreted product” value is “approximately 5%” and the kinetics of formation result was “first-order kinetics”.

For the molecule `O=C(O)c1ccccc1O[C@@H]1O[C@H](C(=O)O)[C@@H](O)[C@H](O)[C@H]1O` [salicylphenolic glucuronide], in data set [3], the “share of excreted product” value was “approximately 8%” and the kinetics of formation result was “Michaelis-Menten or zero-order kinetics”.

The record behind these values is patent US20120164756A1, “ASPIRIN ASSAY” (RANDOX LABORATORIES LIMITED, priority 2009, published 2012).
